IC50 data for 10 molecules are collected here from US20260053834A1, “COVALENT MODIFIERS OF AKT1 AND USES THEREOF” (Terremoto Biosciences, Inc., priority 2023, published 2026).

Experiment [1] has as its target T1, AKT2 (Homo sapiens, UniProt P31751).
T1 construct: expressed in transfected cells; host or cells: HEK293
Description: Live cell target engagement by NanoBRET competitive probe displacement, AKT2. The settings on record: transfected HEK293 cells, 2 h at 37° C., read-out: AKT2 IC50: GeoMean IC50. The class given is binding. For orientation: Bioluminescence resonance energy transfer reports proximity on the nanometre scale.

Experiment [2] has as its system LAPC4 prostate cancer cells, which express the AKT1 E17K allele. Description: Antiproliferative effects in LAPC4 cells (CellTiter Glo, 72 h). In kind it is cell-based. The conditions noted are these: Homo sapiens, LAPC4, 72 h, read-out: LAPC4 proliferation IC50: GeoMean IC50. Put shortly:
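Cells grown in IMDM with 12% FBS, seeded at 1,000 cells/well and treated with compound dilutions in DMSO for 72 h. Intracellular ATP read by luminescence. IC50 from a log(inhibitor) vs. response Hill fit.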
For orientation: Cellular ATP, detected with luciferase, serves as a proxy for viable cell number.

The target of experiment [3] is T2, AKT1 E17K (Homo sapiens, UniProt P31749, E17K).
T2 construct: expressed in transfected cells; host or cells: HEK293
T2 sequence (P31749 whole entry E17K): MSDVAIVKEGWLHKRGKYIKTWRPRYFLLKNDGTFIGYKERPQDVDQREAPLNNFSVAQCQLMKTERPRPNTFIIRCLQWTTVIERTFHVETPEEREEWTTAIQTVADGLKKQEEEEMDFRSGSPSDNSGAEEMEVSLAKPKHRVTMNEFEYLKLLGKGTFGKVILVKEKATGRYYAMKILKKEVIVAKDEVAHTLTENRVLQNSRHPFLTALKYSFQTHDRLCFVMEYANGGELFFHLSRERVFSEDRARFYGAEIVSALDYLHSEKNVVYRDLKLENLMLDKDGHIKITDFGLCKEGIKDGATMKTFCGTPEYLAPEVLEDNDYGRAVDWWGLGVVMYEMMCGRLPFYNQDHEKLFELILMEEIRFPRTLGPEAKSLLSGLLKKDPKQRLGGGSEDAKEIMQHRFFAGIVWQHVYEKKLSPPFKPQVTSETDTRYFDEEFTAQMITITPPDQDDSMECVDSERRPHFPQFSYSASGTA
Description: Live cell target engagement by NanoBRET competitive probe displacement, AKT1 E17K. The class given is binding. The settings on record: transfected HEK293 cells, 2 h at 37° C., read-out: AKT1 E17K IC50: GeoMean IC50.

For experiment [4], the target named is T3, AKT1 WT (Homo sapiens, UniProt P31749).
T3 construct: expressed in transfected cells; host or cells: HEK293
T3 sequence (P31749 whole entry): as the sequence (P31749 whole entry E17K) above, with K17E counted along it
Nature of the experiment: Live cell target engagement by NanoBRET competitive probe displacement, AKT1 WT. The class given is binding. The conditions noted are these: transfected HEK293 cells, 2 h at 37° C., read-out: AKT1 WT IC50: GeoMean IC50.

Some results are limits rather than exact numbers.

T1 sequence (P31751 whole entry): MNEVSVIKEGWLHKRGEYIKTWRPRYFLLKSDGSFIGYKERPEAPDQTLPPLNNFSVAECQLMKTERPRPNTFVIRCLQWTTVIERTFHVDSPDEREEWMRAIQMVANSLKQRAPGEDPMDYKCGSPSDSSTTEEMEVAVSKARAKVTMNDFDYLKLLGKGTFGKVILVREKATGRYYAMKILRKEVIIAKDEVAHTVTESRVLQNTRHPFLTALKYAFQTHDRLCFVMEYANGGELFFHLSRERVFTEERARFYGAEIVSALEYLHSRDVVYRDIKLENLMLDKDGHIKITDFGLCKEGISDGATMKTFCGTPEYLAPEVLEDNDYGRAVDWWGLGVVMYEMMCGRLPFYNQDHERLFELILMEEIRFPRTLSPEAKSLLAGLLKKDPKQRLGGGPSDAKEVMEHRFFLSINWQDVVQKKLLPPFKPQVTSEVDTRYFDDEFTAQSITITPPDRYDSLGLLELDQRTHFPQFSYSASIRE

As to `Cn1ccc(-c2ccc3nc(-c4cccnc4N)n(-c4ccc5c(c4)CC[C@@H]5NC(=O)c4cc(C=O)c(O)cc4F)c3n2)n1` [Example 241, N-[(1S)-5-[2-(2-aminopyridin-3-yl)-5-(1-methylpyrazol-3-yl)imidazo[4,5-b]pyridin-3-yl]-2,3-dihydro-1H-inden-1-yl]-2-fluoro-5-formyl-4-hydroxybenzamide], the IC50 is 100 to 2000 nM in experiment [1], 10 to 100 nM in experiment [2], under 10 nM in experiment [3] and 10 to 100 nM in experiment [4].

For `Nc1ncccc1-c1nc2ccc(-n3cccn3)nc2n1-c1ccc2c(c1)CC[C@@H]2NC(=O)c1cc(C=O)c(O)c2scnc12` [Example 242, (S)—N-(5-(2-(2-aminopyridin-3-yl)-5-(1H-pyrazol-1-yl)-3H-imidazo[4,5-b]pyridin-3-yl)-2,3-dihydro-1H-inden-1-yl)-6-formyl-7-hydroxybenzo[d]thiazole-4-carboxamide], the IC50 in experiment [1] is at least 2000 nM; in experiment [2], 100 to 2000 nM; in experiment [3], 10 to 100 nM; in experiment [4], 100 to 2000 nM.

`Nc1ncccc1-c1nc2c(C(F)F)cc(-n3cccn3)nc2n1-c1ccc2c(c1)CC[C@@H]2NC(=O)c1ccc(O)c(C=O)c1` [Example 245, N-[(1S)-5-[2-(2-aminopyridin-3-yl)-7-(difluoromethyl)-5-(pyrazol-1-yl)imidazo[4,5-b]pyridin-3-yl]-2,3-dihydro-1H-inden-1-yl]-3-formyl-4-hydroxybenzamide]: the IC50 in experiment [1] is 100 to 2000 nM; in experiment [2] it was 10 to 100 nM; in experiment [3], under 10 nM; in experiment [4], 10 to 100 nM.

As to `Nc1ncccc1-c1nc2ccc(-c3cc4n(n3)CCOC4)nc2n1-c1ccc2c(c1)CC[C@@H]2NC(=O)c1cc(C=O)c(O)cc1F` [Example 246, N-[(1S)-5-[2-(2-aminopyridin-3-yl)-5-{4H,6H,7H-pyrazolo[3,2-c][1,4]oxazin-2-yl}imidazo[4,5-b]pyridin-3-yl]-2,3-dihydro-1H-inden-1-yl]-2-fluoro-5-formyl-4-hydroxybenzamide], the IC50 in experiment [1] fell in the range of 100 to 2000 nM; in experiment [2], 10 to 100 nM; in experiment [3], 10 to 100 nM; in experiment [4], 10 to 100 nM.

Consider `Nc1ncccc1-c1nc2ccc(-c3cc4n(n3)CCC4)nc2n1-c1ccc2c(c1)CC[C@@H]2NC(=O)c1cc(C=O)c(O)cc1F` [Example 247, N-[(1S)-5-[2-(2-aminopyridin-3-yl)-5-{4H,5H,6H-pyrrolo[1,2-b]pyrazol-2-yl}imidazo[4,5-b]pyridin-3-yl]-2,3-dihydro-1H-inden-1-yl]-2-fluoro-5-formyl-4-hydroxybenzamide], for which the IC50 in experiment [1] lay within 100 to 2000 nM; in experiment [2] it was 10 to 100 nM; in experiment [3] it was 10 to 100 nM; in experiment [4] it was 10 to 100 nM.

For the molecule `Nc1ncccc1-c1nc2cc(F)c(-n3cccn3)nc2n1-c1ccc2c(c1)CC[C@@H]2NC(=O)c1ccc(O)c(C=O)c1` [Example 248, (S)—N-(5-(2-(2-aminopyridin-3-yl)-6-fluoro-5-(1H-pyrazol-1-yl)-3H-imidazo[4,5-b]pyridin-3-yl)-2,3-dihydro-1H-inden-1-yl)-3-formyl-4-hydroxybenzamide], the IC50 in experiment [1] lay in the range of 100 to 2000 nM; in experiment [2], 100 to 2000 nM; in experiment [3], 10 to 100 nM; in experiment [4], 10 to 100 nM.

With `N#Cc1cc(O)c(C=O)cc1C(=O)N[C@H]1CCc2cc(-n3c(-c4cccnc4N)nc4ccc(-n5cccn5)nc43)ccc21` [Example 250, (S)—N-(5-(2-(2-aminopyridin-3-yl)-5-(1H-pyrazol-1-yl)-3H-imidazo[4,5-b]pyridin-3-yl)-2,3-dihydro-1H-inden-1-yl)-2-cyano-5-formyl-4-hydroxybenzamide], the IC50 in experiment [1], in experiment [2], in experiment [3] and in experiment [4] was at least 2000 nM in each case.

Turning to `Nc1ncccc1-c1nc2ccc(-n3cccn3)nc2n1-c1ccc2c(c1)C1CC1C2NC(=O)c1ccc(O)c(C=O)c1` (stereo not shown) [Example 252, N-(3-(2-(2-aminopyridin-3-yl)-5-(1H-pyrazol-1-yl)-3H-imidazo[4,5-b]pyridin-3-yl)-1,1a,6,6a-tetrahydrocyclopropa[a]inden-6-yl)-3-formyl-4-hydroxybenzamide], the IC50 in experiment [1] was at least 2000 nM; in experiment [2] it was 100 to 2000 nM; in experiment [3] it was 100 to 2000 nM; in experiment [4], 100 to 2000 nM.

On to `Nc1ncccc1-c1nc2ccc(-n3cccn3)nc2n1-c1ccc2c(c1)CC[C@@H]2NC(=O)c1cc(C=O)c(O)c2ncoc12` [Example 253, N-[(1S)-5-[2-(2-aminopyridin-3-yl)-5-(pyrazol-1-yl)imidazo[4,5-b]pyridin-3-yl]-2,3-dihydro-1H-inden-1-yl]-5-formyl-4-hydroxy-1,3-benzoxazole-7-carboxamide], for which the IC50 in experiment [1], in experiment [2], in experiment [3] and in experiment [4] was 100 to 2000 nM in each case.

`Nc1ncccc1-c1nc2ccc(-n3cccn3)nc2n1-c1ccc2c(c1)CC[C@@H]2NC(=O)c1ccc(O)c(C=O)c1F` [Example 255, (S)—N-(5-(2-(2-aminopyridin-3-yl)-5-(1H-pyrazol-1-yl)-3H-imidazo[4,5-b]pyridin-3-yl)-2,3-dihydro-1H-inden-1-yl)-2-fluoro-3-formyl-4-hydroxybenzamide]: the IC50 in experiment [1] was 100 to 2000 nM; in experiment [2], 100 to 2000 nM; in experiment [3] it was 10 to 100 nM; in experiment [4], 100 to 2000 nM.
